# Laboratory results: US20260325605A1, “INHIBITORS” (Zealand Pharma A/S, priority 2022, published 2026)
# Key:
# Kv1.1 = molecular target: T1, Kv1.1 (Homo sapiens, UniProt Q09470); test: Patch clamp assay (QPatch), Kv1.1; format: cell-based; conditions: for IC50: QPatch, CHO cells stably expressing human Kv1.1, read-out: Potency IC50, Kv1.1; for Selectivity Kv1.1/Kv1.3: ratio of IC50 Kv1.1/Kv1.3
# T1 construct: expressed in transfected cells
# Kv1.2 = molecular target: T2, Kv1.2 (Homo sapiens, UniProt P16389); test: Patch clamp assay (QPatch), Kv1.2; format: cell-based; conditions: for IC50: QPatch, CHO cells stably expressing human Kv1.2, read-out: Potency IC50, Kv1.2; for Selectivity Kv1.2/Kv1.3: ratio of IC50 Kv1.2/Kv1.3
# T2 construct: expressed in transfected cells
# T2 sequence (P16389 whole entry): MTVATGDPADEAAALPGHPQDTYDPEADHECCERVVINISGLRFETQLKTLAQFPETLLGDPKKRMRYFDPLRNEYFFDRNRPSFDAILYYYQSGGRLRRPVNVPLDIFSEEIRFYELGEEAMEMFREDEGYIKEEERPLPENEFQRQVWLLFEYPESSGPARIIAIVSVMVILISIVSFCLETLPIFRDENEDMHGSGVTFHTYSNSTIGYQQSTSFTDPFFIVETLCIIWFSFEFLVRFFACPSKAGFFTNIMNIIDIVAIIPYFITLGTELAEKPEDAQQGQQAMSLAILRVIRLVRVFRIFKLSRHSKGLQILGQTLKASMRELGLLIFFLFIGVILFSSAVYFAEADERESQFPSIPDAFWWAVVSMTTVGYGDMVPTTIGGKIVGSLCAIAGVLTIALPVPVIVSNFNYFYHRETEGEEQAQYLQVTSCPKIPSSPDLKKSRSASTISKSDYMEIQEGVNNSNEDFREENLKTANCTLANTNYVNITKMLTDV
# Kv1.3 = molecular target: T3, Kv1.3 (Homo sapiens, UniProt P22001); test: Patch clamp assay (QPatch), Kv1.3; format: cell-based; conditions: CHO cells stably expressing human Kv1.3, read-out: Potency IC50, Kv1.3
# T3 construct: expressed in transfected cells
# T3 sequence (P22001 whole entry): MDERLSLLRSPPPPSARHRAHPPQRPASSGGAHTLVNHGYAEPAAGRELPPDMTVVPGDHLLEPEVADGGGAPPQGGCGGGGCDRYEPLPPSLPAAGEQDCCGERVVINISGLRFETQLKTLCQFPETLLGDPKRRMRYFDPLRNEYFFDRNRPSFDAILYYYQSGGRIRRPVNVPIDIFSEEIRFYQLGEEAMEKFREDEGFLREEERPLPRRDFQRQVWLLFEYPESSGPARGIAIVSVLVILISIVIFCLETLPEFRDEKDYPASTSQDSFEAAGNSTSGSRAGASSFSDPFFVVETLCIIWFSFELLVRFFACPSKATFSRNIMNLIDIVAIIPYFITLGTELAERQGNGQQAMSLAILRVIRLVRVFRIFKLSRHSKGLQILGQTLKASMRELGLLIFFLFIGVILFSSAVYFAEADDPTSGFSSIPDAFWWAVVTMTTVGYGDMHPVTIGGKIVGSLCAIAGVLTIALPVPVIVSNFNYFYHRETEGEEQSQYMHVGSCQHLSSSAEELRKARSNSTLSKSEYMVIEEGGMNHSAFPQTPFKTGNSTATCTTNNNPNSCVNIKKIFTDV
# Description: (§1) Selectivity of Kv1.3 inhibitor peptides for Kv1.3 over other potassium ion channels (Kv1.1, Kv1.2 and Kv1.6) was determined using patch clamp assay.
# (§2) Chinese Hamster Ovary (CHO) cell lines stably expressing exogenous human α-subunits of each potassium ion channel were grown and passaged under standard culture conditions.
# (§3) The automated, chip-based planar patch clamp device QPatch® was used to quantitate the ionic currents. All recordings were made in the conventional whole-cell configuration after establishment of gigaohm seals. […] During experiments 0.1% (v/v) BSA was included as a vehicle in all external recording solutions. Currents were elicited from a holding potential of −80 mV using a voltage protocol, which shifted the voltage to 30 mV for 500 ms every 15 s.
# (§4) Concentration-response relationships were established by cumulatively applying seven escalating concentrations of test sample to an individual cell with a recording period of 2 min per compound application.
# (§5) The efficacy was determined as the mean charge for the last three sweeps at the end of each concentration application period from the cursor positions. The percent inhibition for each test dose application period was calculated as the reduction in mean cursor value (charge) relative to the cursor value measured at the end of the vehicle period and used to calculate the IC50 from the concentration response curve.
# Kv1.6 = molecular target: T4, Kv1.6 (Homo sapiens, UniProt P17658); test: Patch clamp assay (QPatch), Kv1.6; format: cell-based; conditions: for IC50: QPatch, CHO cells stably expressing human Kv1.6, read-out: Potency IC50, Kv1.6; for Selectivity Kv1.6/Kv1.3: ratio of IC50 Kv1.6/Kv1.3
# T4 construct: expressed in transfected cells
# T4 sequence (P17658 whole entry): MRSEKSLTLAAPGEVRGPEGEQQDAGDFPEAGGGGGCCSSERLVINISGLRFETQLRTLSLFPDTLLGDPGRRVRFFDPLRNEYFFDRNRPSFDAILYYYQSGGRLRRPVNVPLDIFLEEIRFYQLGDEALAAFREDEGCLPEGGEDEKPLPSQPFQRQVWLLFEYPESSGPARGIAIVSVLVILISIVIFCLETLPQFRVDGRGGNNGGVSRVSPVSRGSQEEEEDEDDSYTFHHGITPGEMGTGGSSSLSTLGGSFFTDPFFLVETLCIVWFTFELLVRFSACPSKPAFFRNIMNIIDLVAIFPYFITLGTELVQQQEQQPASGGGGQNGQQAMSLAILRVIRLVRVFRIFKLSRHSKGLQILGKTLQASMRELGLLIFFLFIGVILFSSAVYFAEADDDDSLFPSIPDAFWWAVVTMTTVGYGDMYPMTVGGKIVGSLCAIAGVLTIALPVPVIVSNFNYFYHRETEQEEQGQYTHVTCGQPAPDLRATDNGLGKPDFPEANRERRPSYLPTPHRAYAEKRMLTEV
# Description: as §1, §2, §3, §4, §5
# [1] = system: T-cell activation in rat whole blood; test: Example 4: IL-17A release in thapsigargin stimulated rat whole blood; format: cell-based, rat (Lewis or Sprague-Dawley); conditions: 24 Hr, at least 2 replicates, unit inferred, read-out: IC50 (inhibition of IL-17A release)
# Description: Rat whole blood was used to assess the potency of Kv1.3 inhibitor peptides on T-cell activation as determined by IL-17A release after stimulation with thapsigargin. Addition of thapsigargin results in activation of a signalling cascade ending up in activation of T cell proliferation and cytokine production where the Kv1.3 ion channel plays a key role, so activity of Kv1.3 inhibitors in primary cells can be measured in this experimental system.
# Rat whole blood was obtained from healthy, naïve Lewis or Sprague-Dawley rats that were terminally bleed from the heart using Sodium Heparin blood sampling tubes for collection. Peptides were diluted to 4× final testing concentrations in assay buffer (DMEM+GlutaMAX), GlutaMAX is a medium comprising 3.97 mM L-alanine-L-glutamine (Gibco Cat #61965026) supplemented with 25 mM HEPES buffer, 1 mM Sodium Pyruvate, 100 units/ml Penicillin, 100 μg/ml Streptomycin and 0.05% Casein from bovine milk (Sigma-Aldrich)) and 25 μl was added to wells of a 96 well plate. Then 50 μl whole rat blood was added and incubated for minimum 5 minutes at room temperature to allow compound binding. Then 25 μl 40 μM thapsigargin diluted in assay buffer was added to all wells of the assay plates to activate the cells, followed by incubation for 24 Hr at 37° C./5% CO2 in a humidified box. The assay plates were centrifuged for 10 min at 300 g at 4° C. and the supernatants were transferred to new plates. The concentrations of IL-17A released to the supernatants were measured using a Rat IL-17A ELISA Kit (Abcam Cat #ab214028) as recommended by the manufacturer. Samples were diluted 2.5-fold by transferring 20 μl of the supernatants to wells on ELISA plates containing 30 μl buffer 75BS from the detection kit.
# Data from peptides eliciting an inhibition of IL-17A were normalised relative to full thapsigargin activation (no inhibitor added) and no activation controls (addition of assay buffer instead of thapsigargin) to calculate the IC50 from the concentration response curve.
# Results are shown in Table 5, expressed as IC50, with standard deviation (IC50_SD). All values are derived from at least 2 replicates. The biological effects ex vivo show a correlation with the potency of the peptides.
# T1 sequence (Q09470 whole entry): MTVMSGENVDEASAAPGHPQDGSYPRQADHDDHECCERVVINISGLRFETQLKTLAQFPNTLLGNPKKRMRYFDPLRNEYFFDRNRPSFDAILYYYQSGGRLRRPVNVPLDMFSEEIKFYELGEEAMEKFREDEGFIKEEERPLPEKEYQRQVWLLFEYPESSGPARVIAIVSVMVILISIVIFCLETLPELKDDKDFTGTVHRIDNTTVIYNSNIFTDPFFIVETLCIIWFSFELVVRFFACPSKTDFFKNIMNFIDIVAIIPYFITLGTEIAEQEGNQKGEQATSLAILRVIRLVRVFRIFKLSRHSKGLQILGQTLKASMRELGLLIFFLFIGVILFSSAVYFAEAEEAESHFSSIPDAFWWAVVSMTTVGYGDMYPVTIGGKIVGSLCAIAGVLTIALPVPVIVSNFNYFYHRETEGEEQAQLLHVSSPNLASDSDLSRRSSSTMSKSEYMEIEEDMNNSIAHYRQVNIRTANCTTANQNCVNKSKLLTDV
substance,measurement,setting,value
H-N[Nle]D[Nle]RC(1)SASVEC(2)KQKC(3)LKAIGSIFGKC(1)[Nle]NKKC(2)KC(3)YPR-NH2 [Peptide 41],IC50,Kv1.1,> 3000 nM
same,Selectivity Kv1.1/Kv1.3,Kv1.1,>11600
same,IC50,Kv1.2,113 nM
same,Selectivity Kv1.2/Kv1.3,Kv1.2,436
same,IC50,Kv1.3,0.26 nM
same,IC50,Kv1.6,1830 nM
same,Selectivity Kv1.6/Kv1.3,Kv1.6,7073
"H-RSCIDTIPKSRCTAFQCKHSMKYRLSFCRKTCGTC-OH [ShK, reference compound]",IC50,Kv1.2,11 nM
same,IC50,Kv1.6,0.19 nM
H-P[Nle]D[Nle]RC(1)SASVEC(2)KQKC(3)LKAIGC(4)IFGKC(1)[Nle]NKKC(2)KC(3)YPC(4)-OH [Peptide 86],IC50,[1],1.1 nM
H-LRC(1)SASVEC(2)KQKC(3)LKAIGSIFGKC(1)[Nle]NKKC(2)KC(3)YPR-OH [Peptide 115],IC50,[1],2.1 nM
H-QMDMRC(1)SASVEC(2)KQKC(3)LKAIGRGFGKC(1)MNKKC(2)KC(3)YPR-OH [Peptide 2],IC50,Kv1.1,> 3000 nM
same,Selectivity Kv1.1/Kv1.3,Kv1.1,>2000
same,IC50,Kv1.2,97 nM
same,Selectivity Kv1.2/Kv1.3,Kv1.2,65
same,IC50,Kv1.3,1.5 nM
same,IC50,Kv1.6,1810 nM
same,Selectivity Kv1.6/Kv1.3,Kv1.6,1204
H-PIDERC(1)SASVEC(2)KQKC(3)LAAIGSIFGKC(1)[Nle]NKKC(2)KC(3)YPR-OH [Peptide 104],IC50,[1],0.87 nM
H-NMDMRC(1)SASVEC(2)KQKC(3)LKRIGSIFGKC(1)MNKKC(2)KC(3)YPR-NH2 [Peptide 57],IC50,Kv1.1,> 3000 nM
same,Selectivity Kv1.1/Kv1.3,Kv1.1,>9900
same,IC50,Kv1.2,57 nM
same,Selectivity Kv1.2/Kv1.3,Kv1.2,187
same,IC50,Kv1.3,0.3 nM
same,IC50,Kv1.6,932 nM
same,Selectivity Kv1.6/Kv1.3,Kv1.6,3062
H-NMDMRC(1)SASVEC(2)KQKC(3)LKAIHSIFGKC(1)MNKKC(2)KC(3)YPR-NH2 [Peptide 34],IC50,[1],0.7 nM
H-S[Nle]D[Nle]RC(1)SASVEC(2)KQKC(3)LKAIGSIFGKC(1)MNKKC(2)KC(3)[F(4-CH3)]PR-NH2 [Peptide 96],IC50,[1],0.54 nM
H-NMEMRC(1)SASVEC(2)KQKC(3)LKAIGSIFGKC(1)MNKKC(2)KC(3)YPR-OH [Peptide 13],IC50,Kv1.1,> 3000 nM
same,Selectivity Kv1.1/Kv1.3,Kv1.1,>27600
same,IC50,Kv1.2,228 nM
same,Selectivity Kv1.2/Kv1.3,Kv1.2,2093
same,IC50,Kv1.3,0.11 nM
same,IC50,Kv1.6,> 3000 nM
same,Selectivity Kv1.6/Kv1.3,Kv1.6,>27600
H-S[Nle]D[Nle]RC(1)SASVEC(2)KQKC(3)LAAIGC(4)IFGKC(1)[Nle]NKKC(2)KC(3)YPC(4)-NH2 [Peptide 90],IC50,[1],0.73 nM
Ac-LRC(1)SASVEC(2)KQKC(3)LAAIGSIFGKC(1)[Nle]NKKC(2)KC(3)YPR-OH [Peptide 122],IC50,[1],0.9 nM
H-S[Nle]D[Nle]RC(1)SASVEC(2)VQKC(3)LKAIGSIFGKC(1)MNKKC(2)KC(3)YPR-NH2 [Peptide 74],IC50,[1],0.47 nM
H-P[Nle]D[Nle]RC(1)SASVEC(2)AQKC(3)LAAIGSIFGKC(1)MNKKC(2)KC(3)YPR-OH [Peptide 106],IC50,[1],0.32 nM
H-S[Nle]D[Nle]RC(1)SASVEC(2)AQSC(3)LKAIGSIFGKC(1)MNKKC(2)KC(3)YPR-NH2 [Peptide 81],IC50,Kv1.1,> 3000 nM
same,Selectivity Kv1.1/Kv1.3,Kv1.1,>14600
same,IC50,Kv1.2,1150 nM
same,Selectivity Kv1.2/Kv1.3,Kv1.2,5596
same,IC50,Kv1.3,0.21 nM
same,IC50,Kv1.6,> 3000 nM
same,Selectivity Kv1.6/Kv1.3,Kv1.6,>14600
"H-P[Nle]E[Nle]RC(1)[2,4-Diaminobutanoyl]ASVEC(2)KQKC(3)LAAIGSIFGKC(1)[Nle]NKKC(2)KC(3)YPR-OH [Peptide 84]",IC50,Kv1.1,> 3000 nM
same,Selectivity Kv1.1/Kv1.3,Kv1.1,>100000
same,IC50,Kv1.2,480 nM
same,Selectivity Kv1.2/Kv1.3,Kv1.2,17000
same,IC50,Kv1.3,0.028 nM
same,IC50,Kv1.6,> 3000 nM
same,Selectivity Kv1.6/Kv1.3,Kv1.6,>100000
H-NMDMRC(1)KASVEC(2)KQKC(3)LKAIGSIFGKC(1)MNKKC(2)KC(3)YPR-NH2 [Peptide 26],IC50,Kv1.1,> 3000 nM
same,Selectivity Kv1.1/Kv1.3,Kv1.1,>34200
same,IC50,Kv1.2,67 nM
same,Selectivity Kv1.2/Kv1.3,Kv1.2,761
same,IC50,Kv1.3,0.09 nM
same,IC50,Kv1.6,363 nM
same,Selectivity Kv1.6/Kv1.3,Kv1.6,4144
H-S[Nle]D[Nle]RC(1)SASVEC(2)KQKC(3)LKAIGSIFGKC(1)MNKKC(2)KC(3)YQ-NH2 [Peptide 76],IC50,[1],1.6 nM
H-C(1)SASVEC(2)KQKC(3)LKAIGC(4)IFGKC(1)[Nle]NKKC(2)KC(3)YPC(4)-NH2 [Peptide 89],IC50,[1],1.1 nM
H-N[Nle]D[Nle]RC(1)SASVEC(2)KQKC(3)LKAIGSIFGKC(1)MNKKC(2)KC(3)YPR-NH2 [Peptide 40],IC50,Kv1.3,0.15 nM
H-S[Nle]D[Nle]RC(1)SASVEC(2)KQKC(3)LKAIGSIFGKC(1)[Nle]NKKC(2)KC(3)YPR-OH [Peptide 68],IC50,[1],0.52 nM
H-NMDMRC(1)SASVEC(2)KQKC(3)LKYIGSIFGKC(1)MNKKC(2)KC(3)YPR-NH2 [Peptide 56],IC50,Kv1.3,0.12 nM
H-NMDMRC(1)SASVEC(2)KQKC(3)LAIGSIFGKC(1)MNKKC(2)KC(3)YPR-NH2 [Peptide 55],IC50,Kv1.1,> 3000 nM
same,Selectivity Kv1.1/Kv1.3,Kv1.1,>1200
same,IC50,Kv1.2,291 nM
same,Selectivity Kv1.2/Kv1.3,Kv1.2,121
same,IC50,Kv1.3,2.41 nM
same,IC50,Kv1.6,> 3000 nM
same,Selectivity Kv1.6/Kv1.3,Kv1.6,>1200
H-S[Nle]D[Nle]RC(1)SA[Abu]VEC(2)KQKC(3)LKAIGSIFGKC(1)MNKKC(2)KC(3)YPR-NH2 [Peptide 70],IC50,[1],0.93 nM
H-S[Nle]D[Nle]RC(1)SASVEC(2)KQKC(3)LKAIGSIFGKC(1)MNKKC(2)KC(3)[F(4-NO2)]PR-NH2 [Peptide 95],IC50,[1],1.3 nM
H-NMDMRC(1)SASVEC(2)KQKC(3)RKAIGSIFGKC(1)MNKKC(2)KC(3)YPR-NH2 [Peptide 52],IC50,Kv1.3,0.25 nM
H-P[Nle]D[Nle]RC(1)SASVEC(2)KEKC(3)L[homo-Gln]AIGSIFGKC(1)[Nle]NKKC(2)KC(3)YPR-NH2 [Peptide 88],IC50,[1],1.4 nM
H-NMDMRC(1)SASVEC(2)KQKC(3)LKAYGSIFGKC(1)MNKKC(2)KC(3)YPR-NH2 [Peptide 59],IC50,Kv1.1,> 3000 nM
same,Selectivity Kv1.1/Kv1.3,Kv1.1,>8800
same,IC50,Kv1.2,145 nM
same,Selectivity Kv1.2/Kv1.3,Kv1.2,426
same,IC50,Kv1.3,0.34 nM
same,IC50,Kv1.6,> 3000 nM
same,Selectivity Kv1.6/Kv1.3,Kv1.6,>8800
H-S[Nle]D[Nle]RC(1)SASVEC(2)KEKC(3)LQAIGSIFGKC(1)[Nle]NKKC(2)KC(3)YPR-NH2 [Peptide 87],IC50,[1],0.69 nM
H-N[Nle]D[Nle]RC(1)SASVEC(2)QQKC(3)LKAIGSIFGKC(1)[Nle]NKKC(2)KC(3)YPR-NH2 [Peptide 45],IC50,[1],1.1 nM
H-S[Nle]D[Nle]RC(1)SASVEC(2)KQKC(3)LKAIGSIFG[homo-Lys]C(1)MNKKC(2)KC(3)YPR-NH2 [Peptide 71],IC50,[1],2.7 nM
H-S[Nle]D[Nle]RC(1)SASVEC(2)KQKC(3)LKAIGSIFGKC(1)MNKKC(2)KC(3)[F(4-F)]PR-NH2 [Peptide 94],IC50,[1],0.34 nM
H-S[Nle]D[Nle]RC(1)SASVEC(2)KQKC(3)LVAIGSIFGKC(1)MNKKC(2)KC(3)YPR-NH2 [Peptide 80],IC50,[1],0.39 nM
H-P[Nle]E[Nle]RC(1)SASVEC(2)KQKC(3)LLAIGSIFGKC(1)[Nle]NKKC(2)KC(3)YPR-OH [Peptide 103],IC50,[1],0.5 nM
H-S[Nle]D[Nle]RC(1)SASVEC(2)AQKC(3)LAAIGSIFGKC(1)MNKKC(2)KC(3)YPR-NH2 [Peptide 82],IC50,Kv1.3,0.16 nM
H-NMDMRC(1)SASVEC(2)KQKC(3)YKAIGSIFGKC(1)MNKKC(2)KC(3)YPR-NH2 [Peptide 51],IC50,Kv1.3,0.27 nM
H-NMDMRC(1)SASVEC(2)KQKC(3)LKAIGSIFGKC(1)MNKKC(2)VC(3)YPR-NH2 [Peptide 39],IC50,[1],2.8 nM
H-S[Nle]D[Nle]RC(1)SASVEC(2)K[2-Amino-5-carboxypentanoyl]KC(3)LKAIGSIFGKC(1)MNKKC(2)KC(3)YPR-NH2 [Peptide 75],IC50,[1],0.52 nM
H-P[Nle]E[Nle]RC(1)[2-Amino-3-guanidinopropionyl]ASVEC(2)KQKC(3)LAAIGSIFGKC(1)[Nle]NKKC(2)KC(3)YPR-OH [Peptide 91],IC50,Kv1.1,> 3000 nM
same,Selectivity Kv1.1/Kv1.3,Kv1.1,>46000
same,IC50,Kv1.2,380 nM
same,Selectivity Kv1.2/Kv1.3,Kv1.2,6000
same,IC50,Kv1.3,0.064 nM
same,IC50,Kv1.6,> 3000 nM
same,Selectivity Kv1.6/Kv1.3,Kv1.6,>46000
Ac-LRC(1)SASVEC(2)KQKC(3)LAAIGSIFGKC(1)MNKKC(2)KC(3)YPR-OH [Peptide 123],IC50,[1],0.36 nM
H-N[Nle]D[Nle]RC(1)SASVEC(2)EQKC(3)LKAIGSIFGKC(1)[Nle]NKKC(2)KC(3)YPR-NH2 [Peptide 44],IC50,[1],0.99 nM
